Results published in ChEMBL document CHEMBL1140784, “Leishmanicidal and trypanocidal activities of 2-aminocyclohexanol and 1,2-cyclohexanediamine derivatives” (Bioorg Med Chem Lett, 2008).
pIC50: −log10 of the molar value.

What was measured:
Leishmania braziliensis = experiment: Antileishmanial activity against Leishmania braziliensis MHOM/BR/75/M2903 promastigotes after 72 hrs; assay type: functional, organism-based; conditions: MHOM/BR/75/M2903, 72 h
Trypanosoma cruzi = experiment: Antitrypanosomal activity against Trypanosoma cruzi Tulahuen epimastigotes after 72 hrs; assay type: functional, organism-based
Leishmania donovani = experiment: Antileishmanial activity against Leishmania donovani MHOM/BR/74/PP75 promastigotes after 72 hrs; conditions: MHOM/BR/74/PP75, 72 h
Leishmania amazonensis = experiment: Antileishmanial activity against Leishmania amazonensis IFLA/BR/67 promastigotes at pH 8.0 after 72 hrs; assay type: functional, organism-based

Row | pIC50 (Leishmania braziliensis) | pIC50 (Trypanosoma cruzi) | pIC50 (Leishmania donovani) | pIC50 (Leishmania amazonensis) | Compound
1 | 5.14 | 5.92 | 5.02 | 5.14 | CCCCCCCCCCCCC/C=C1/CCC[C@@H](NCCCC)[C@@H]1OC(C)=O
2 | 4.97 | 4.01 | 4.89 | 4.81 | CCCCCCCCCCCCC/C=C1/CCC[C@@H](NCc2ccccc2)[C@@H]1NCCCCCC
3 | 4.88 | 5.06 | 4.88 | 4.94 | CCCCCCCCCCCCC/C=C1/CCC[C@H](O)[C@H]1OC(C)=O
4 | 5.06 | 5.07 | 5.07 | 5.04 | CCCCCCCCCCCCC/C=C1/CCC[C@H](NCCCC)[C@H]1OC(C)=O
5 | 3.83 | 3.97 | 3.80 | 3.80 | CCCCCCCCCCCCC/C=C1/CCC[C@H](OCc2ccccc2)[C@H]1N(CC)CC
6 | 4.85 | 3.94 | 4.76 | 4.85 | CCCCCCCCCCCCC/C=C1/CCC[C@@H](NCCCC)[C@@H]1NCCCCCC
7 | 5.96 | 6.85 | 5.96 | 5.96 | CCCCCCCCCCCCC/C=C1/CCC[C@H](O)[C@H]1NCCN (relative stereo)
8 | 6.54 | 6.72 | 6.54 | 6.59 | CCCCCCCCCCCCCC[C@@H]1CCC[C@H](O)[C@H]1N (relative stereo)
9 | 6.70 | – | – | 6.70 | C[C@@H]1[C@H](O)[C@@H](C)/C=C/C=C/C=C/C=C/C=C/C=C/C=C/[C@H](O[C@@H]2O[C@H](C)[C@@H](O)[C@H](N)[C@@H]2O)C[C@@H]2O[C@](O)(C[C@@H](O)C[C@@H](O)[C@H](O)CC[C@@H](O)C[C@@H](O)CC(=O)O[C@H]1C)C[C@H](O)[C@H]2C(=O)O (stereo in doubt) [AMPHOTERICIN B]
10 | – | 4.13 | – | – | O=C(Cn1ccnc1[N+](=O)[O-])NCc1ccccc1 [BENZNIDAZOLE]
11 | 4.53 | – | 4.53 | 4.53 | N=C(N)c1ccc(OCCCCCOc2ccc(C(=N)N)cc2)cc1 [PENTAMIDINE]

Row | Compound | pIC50 (Leishmania braziliensis) | pIC50 (Trypanosoma cruzi) | pIC50 (Leishmania donovani) | pIC50 (Leishmania amazonensis)
12 | CCCCCCCCCCCCC/C=C1/CCC[C@@H]2[C@H]1N2Cc1ccccc1 (stereo partly specified) | 4.79 | 4.51 | 4.70 | 4.79
13 | CCCCCCCCCCCCC/C=C1/CCC[C@@H]2[C@H]1N2CCCCCC (stereo partly specified) | 5.62 | 4.29 | 5.74 | 5.62
